Laboratory results taken from article PMC7898822, “RNA‐PROTACs: Degraders of RNA‐Binding Proteins” (Angewandte Chemie (International Ed. in English), 2020).

What was measured:
[1] = test system: Lin28A; test: Western blot of Lin28A in NT2/D1 cells; assay type: cell-based, human; settings: 2 μM, three independent experiments
Text: Finally, we tested RNA‐PROTACs for their ability to degrade their target in two cell lines: the embryonic NT2/D1 cell line, which expresses high levels of Lin28A, ^[13a] and K562 cells which express Lin28A and Lin28B. […] Finally, we co‐treated K562 cells with ORN3P1 and MG132, a reversible inhibitor of the 26S proteasome. […] In order to explore the versatility of RNA‐PROTACs with non peptide‐based VHL ligands, we conjugated small‐molecule VH032 ^[38] to ORN3 via an amino linker to yield ORN3VH032 (Figure S1). […]

[2] = test system: myc-Lin28A; test: Ubiquitination assay of myc-Lin28A in 22Rv1 cells; assay type: cell-based; settings: HA-Ub co-transfected, 500 nM, 48 h, anti-HA western blot after cMyc IP
Method: Next, we investigated the ability of ORN3P1 and ORN7P1 to mediate ubiquitination of Lin28 in cells, using a previously described protocol. ^[32] Cells from the prostate cancer cell line 22RV1, which express very low levels of Lin28, were co‐transfected with two plasmids expressing pCMV‐myc‐Lin28A and HA‐tagged polyubiquitin (HA‐Ub).
After 48 h of incubation with ORN3P1 and ORN7P1, the tagged Lin28 (and the control QKI) was immunoprecipitated using an anti‐Myc antibody. The isolated protein was then analyzed by western blotting using the anti‐HA and anti‐c‐Myc antibodies. Consistent with other previously described PROTAC reagents,[ ^32 , ^33 ]
The protein extracts (12-17 µg) were run on a 4-20% SDS-PAGE and transferred on a nitrocellulose blotting membrane 0.22 µm (GE Healthcare) using the Trans-Blot transfer device (Biorad). Membranes were blocked with 5% milk and incubated with the primary antibody overnight at 4 °C. Membranes were washed with 0.05% PBS-T and reacted with the secondary antibody for 1 h in 5% milk. The proteins were detected using the anti-lin28a antibody (Cell Signaling technology, D9F5), anti-lin28b antibody (Cell Signaling technology, 4196S), anti-rbfox1 (NovusBio, NBP2-13169SS), at 1:1000 and anti-hrnp c antibody […]
(Abcam, AB133607) at 1:10000 dilutions. […]
on a ChemiDoc MP imager (Biorad). The intensity of the signal was quantified using the ImageJ-Fiji software. […]

[3] = test system: K562 cells; test: Confocal microscopy, intracellular localization in K562 cells; assay type: cell-based, human; settings: FAM labelled ORN3P1, 1 µM, 24 h
[4] = test system: Lin28B; test: Confocal microscopy, LIN28B level in K562 cells; assay type: cell-based, human; settings: FAM labelled ORN3P1, 1 µM, 24 h
[5] = target: T1, Lin28_ZKD (Homo sapiens, UniProt Q9H9Z2); test: Fluorescence polarization competition assay (displacement of let7FAM from Lin28_ZKD); assay type: binding; settings: competition FP, conjugate vs parent
T1 construct: construct encoding amino acids 124–186 of human Lin28; His6; made in house; host or cells: Escherichia coli BL21 (DE3) Codon+ (RIL)
T1 sequence (Q9H9Z2 124-186): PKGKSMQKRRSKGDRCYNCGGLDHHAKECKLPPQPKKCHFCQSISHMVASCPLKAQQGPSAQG
Method: Fluorescence Polarization Assay. Fluorescence polarization titration assay was carried out by titrating Lin28_ZKD protein into FAM-labeled PreE-let-7 at a 10 nM final concentration and buffer (10 mM HEPES, 150 mM NaCl, 10 µM ZiCl2, pH 7,4). The assay plate was briefly vortexed, and air bubbles were removed by spinning at 1000 rpm. The fluorescence anisotropy was measured on a Spectra Max Paradigm multimode plate reader (Molecular Devices). The fluorescence polarization competition […]
preE-let-7. The concentration of Lin28_ ZKD is kept at 40 nM, a value in the range of the dissociation constant of Lin28_ZKD and preE-let-7 determined through fluorescence polarization titration assay, whereas preE-let-7 concentration is kept constant at 10 nM. FP competitive binding assays were performed on 384-well plates (#3575, Corning) with a total well volume of 10 µL.
Fluorescence polarization readings were transferred into Prism 7.0 (GraphPad). All fluorescence polarization assays were repeated at least three times and the anisotropy values fitted using GraphPad Prism software using 1:1 binding/inhibition model. […]

CC[C@H](C)[C@H](NC(=O)[C@H](Cc1ccc(O)cc1)NC(=O)[C@@H]1C[C@@H](O)CN1C(=O)[C@H](C)NC(=O)[C@H](CC(C)C)NC(=O)CCCCCNC(=O)[C@@H](N)CSC1CC(=O)N(CCOP(=O)(S)OC[C@H]2O[C@@H](n3cnc4c(N)ncnc43)[C@H](OCCOC)[C@@H]2OP(=O)(S)OC[C@H]2O[C@@H](n3cnc4c(=O)[nH]c(N)nc43)[C@H](OCCOC)[C@@H]2OP(=O)(S)OC[C@H]2O[C@@H](n3cnc4c(=O)[nH]c(N)nc43)[C@H](OCCOC)[C@@H]2OP(=O)(S)OC[C@H]2O[C@@H](n3cnc4c(N)ncnc43)[C@H](OCCOC)[C@@H]2OP(=O)(S)OC[C@H]2O[C@@H](n3cnc4c(=O)[nH]c(N)nc43)[C@H](OCCOC)[C@@H]2OP(=O)(S)OC[C@H]2O[C@@H](n3cnc4c(N)ncnc43)[C@H](OCCOC)[C@@H]2OP(=O)(S)OC[C@H]2O[C@@H](n3cc(C)c(=O)[nH]c3=O)[C@H](OCCOC)[C@@H]2O)C1=O)C(=O)O (some centres unmarked) [ORN3P1]
reduction of Lin28A [1]: ~50%
ubiquitination of myc-Lin28A [2]: showed a smear on the gel towards higher molecular weight
intracellular presence by confocal microscopy [3]: in the cytoplasm and nuclei of K562 cells
LIN28B by confocal microscopy [4]: relatively unaffected
competition for Lin28_ZKD relative to parent unconjugated oligonucleotides [5]: competed slightly more strongly
